Tests used:
Assay type in all cases: in vivo, BALB/c mice
MC903-induced AD model [1] = experiment: MC903-induced AD mouse model, itching symptoms (scratching times), Example 4; details: cream 0.1% and 0.5%, right auricle, day 3 to day 10; video on the day before the experiment ended
Text: Experimental animals involved in the following embodiments were SPF-grade BALB/c mice (≥7 weeks old, female). This example explores the preventive and therapeutic effect of a small-molecule diterpene derivative to itching symptoms on the MC903-induced AD model, including the following: • The day of grouping was defined as day 0. Mice were randomly divided into 5 groups: blank control (NC) group, model (MC903) group, blank cream (vehicle) group, 0.1%-Compound 1 cream group, and 0.5%-Compound 1 cream group; each group had 10 animals. Each group except NC group was treated for modeling AD. From day 0 to day 10:0.1 nmol/μL-MC903solution was applied to the auricle of right ear at 20 μL once a day. Each group except NC group and MC903 group was administrated. The administration started from day 3 to day 10, and the mice was administrated once a day at the auricle of right ear by 50 μL. The administration method for modeling and the design of subject dosage are same as Example 3. On the day before the experiment ended, the mice were videoed, and the mice of AD model were evaluated through the video about their scratching times in 15 min.

OXA-induced AD model [2] = experiment: OXA-induced AD mouse model, Example 2 (Compound 1 cream; lesion score, ear thickness, immunohistochemistry, Western Blot); details: for right ear thickness on day 24 / skin lesion score on day 24: 50 μL per ear once a day, day 7 to day 23; for right ear thickness on day 24 / skin lesion score on day 24 / ICAM-1 positive rate, immunohistochemistry / Ki67 positive rate, immunohistochemistry / VCAM-1 positive rate, immunohistochemistry: vs vehicle group
Text: Experimental animals involved in the following embodiments were SPF-grade BALB/c mice (≥7 weeks old, female). The scoring criteria for skin lesions involved in the following embodiments are shown in Table 1 and the histopathological scoring criteria are shown in Table 2. [table] The day of grouping was defined as day 0. Mice were randomly divided into 5 groups: blank control (NC) group, model (OXA) group, blank cream (vehicle) group, 0.1%-Compound 1 cream group, and 0.5%-Compound 1 cream group; the NC group had 5 animals, the other groups each had 10 animals. Each group except NC group was treated for modeling AD. Day 0:0.8%-OXA solution was applied to the auricle of both ears at 20 μL per ear. Day 7, 10, 12, 14, 17, 19, 21, and 23:0.4%-OXA solution was applied to the auricle of both ears at 20 μL per ear. Each group except NC group and OXA group was administrated. The administration started from day 7 to day 23, and the mice was administrated once a day at the auricle of both ears by 50 μL per ear (100 μL per mouse). The condition of the animals was observed during the experimental period, and the auricle was scored for skin lesions (see Table 1 for skin lesion scoring criteria), and the thickness of the ears was measured. The mice were euthanized, and their ear tissues were retained for immunohistochemistry and Western Blot analysis. [table]

OXA-induced AD model [3] = experiment: OXA-induced AD mouse model, Example 1 (eight compounds in castor oil); details: 0.1% in castor oil, day 7 to day 23; for OXA-induced AD-like lesions (conclusion of Example 1): auricle
Text: Experimental animals involved in the following embodiments were SPF-grade BALB/c mice (≥7 weeks old, female). The scoring criteria for skin lesions involved in the following embodiments are shown in Table 1 and the histopathological scoring criteria are shown in Table 2. [table] The day of grouping was defined as day 0. Mice were randomly divided into 11 groups: blank control (NC) group, model (OXA) group, blank castor oil (vehicle) group, Compound 1 administration group, Compound 2 administration group, Compound 3 administration group, Compound 4 administration group, Compound 5 administration group, Compound 6 administration group, Compound 7 administration group, and Compound 8 administration 10 group, with 5 animals in each group. Each group except NC group was treated for modeling AD. Day 0:0.8%-OXA solution was applied to the auricle of both ears at 20 μL per ear. Day 7, 10, 12, 14, 17, 19, 21, and 23:0.4%-OXA solution was applied to the auricle of both ears at 20 μL per ear. Each group except NC group and OXA group was administrated. The administration started from day 7 to day 23, and the mice was administrated once a day at the auricle of both ears by 50 μL per ear (100 μL per mouse). The condition of the animals was observed during the experimental period, and the auricle was scored for skin lesions (see Table 1 for skin lesion scoring criteria), and the thickness of the ears was measured. [table]

MC903-induced AD model [4] = experiment: MC903-induced AD mouse model, Example 3 (ear swelling, skin thickness, mast cells, histopathology, serum IgE ELISA)
Text: Experimental animals involved in the following embodiments were SPF-grade BALB/c mice (≥7 weeks old, female). The scoring criteria for skin lesions involved in the following embodiments are shown in Table 1 and the histopathological scoring criteria are shown in Table 2. [table] This example explores the preventive and therapeutic effect of a small-molecule diterpene derivative on the MC903-induced AD model, including the following: • The day of grouping was defined as day 0. Mice were randomly divided into 5 groups: blank control (NC) group, model (MC903) group, blank cream (vehicle) group, 0.1%-Compound 1 cream group, and 0.5%-Compound 1 cream group; each group had 10 animals. Each group except NC group was treated for modeling AD. From day 0 to day 10:0.1 nmol/μL-MC903 solution was applied to the auricle of right ear at 20 μL once a day. Each group except NC group and MC903 group was administrated. The administration started from day 3 to day 10, and the mice was administrated once a day at the auricle of right ear by 50 μL. The condition of the animals was observed during the experimental period. The mice were euthanized, and their ear tissues were retained for the degree of ear swelling measurement, skin thickness measurement, mast cell counting and immunohistochemical analysis, and their blood tissues were retained for ELISA. [table]

[5] = cream, 0.1% and 0.5% groups together
[6] = cream, 0.1% and 0.5%, ear tissue
[7] = 50 μL per ear on auricle once a day, compared with vehicle group
[8] = cream 0.1% and 0.5%, right auricle, day 3 to day 10

SMILES: C=C1C(=O)[C@@]23[C@H](O)C[C@@H]4C(C)(C)c5nc(N(C)C)sc5C[C@@]4(C)[C@@H]2CC[C@@H]1[C@H]3O [Compound 1]
- scratching times in 15 min (extent of itching) (MC903-induced AD model [1]): effectively ameliorates the extent of itching
- right ear thickness on day 24 (OXA-induced AD model [2]; 0.1% cream): statistically different from the vehicle group
- skin lesion score on day 24 (OXA-induced AD model [2]; 0.1% cream): statistically different from the vehicle group
- ICAM-1 positive rate, immunohistochemistry (OXA-induced AD model [2]; 0.1% cream, ear tissue): reduced
- Ki67 positive rate, immunohistochemistry (OXA-induced AD model [2]; 0.1% cream, ear tissue): reduced (statistically different)
- VCAM-1 positive rate, immunohistochemistry (OXA-induced AD model [2]; 0.1% cream, ear tissue): reduced
- right ear thickness on day 24 (OXA-induced AD model [2]; 0.5% cream): statistically different from the vehicle group
- skin lesion score on day 24 (OXA-induced AD model [2]; 0.5% cream): statistically different from the vehicle group
- ICAM-1 positive rate, immunohistochemistry (OXA-induced AD model [2]; 0.5% cream, ear tissue): reduced
- Ki67 positive rate, immunohistochemistry (OXA-induced AD model [2]; 0.5% cream, ear tissue): reduced (statistically different)
- VCAM-1 positive rate, immunohistochemistry (OXA-induced AD model [2]; 0.5% cream, ear tissue): reduced
- OXA-induced AD-like lesions (conclusion of Example 2) (OXA-induced AD model [2]; cream, 0.1% and 0.5%): significantly ameliorate the OXA-induced AD-like lesions
- ear thickness (conclusion) (OXA-induced AD model [2]; [5]): effectively ameliorate the ear thickness
- epidermal overproliferation (Ki67) and aberrant expression of adhesion factor (ICAM-1, VCAM-1), conclusion (OXA-induced AD model [2]; [5]): effectively inhibit the epidermal overproliferation and aberrant expression of adhesion factor
- skin lesion score (conclusion) (OXA-induced AD model [2]; [5]): effectively reduce the skin lesion score
- ICAM-1 protein expression (gray value), Western Blot (OXA-induced AD model [2]; [6]): consistent with the immunohistochemical results
- VCAM-1 protein expression (gray value), Western Blot (OXA-induced AD model [2]; [6]): consistent with the immunohistochemical results
- skin lesion score on day 24 (OXA-induced AD model [3]; [7]): effectively reduce the skin lesion score
- OXA-induced AD-like lesions (conclusion of Example 1) (OXA-induced AD model [3]): significantly ameliorate the OXA-induced AD-like lesions
- degree of ear swelling (MC903-induced AD model [4]; cream 0.1% and 0.5%, 50 μL on right auricle once a day, day 3 to day 10): effectively ameliorate the ear swelling
- dermal thickness (ear histological scanning) (MC903-induced AD model [4]; [8]): effectively ameliorate the thickening of epidermis and dermis
- epidermal thickness (ear histological scanning) (MC903-induced AD model [4]; [8]): effectively ameliorate the thickening of epidermis and dermis
- histopathology scores (total, parakeratosis, epidermal defect, dermal papilla thickening, capillary proliferation, inflammatory infiltration), HE staining (MC903-induced AD model [4]; [8]): effectively ameliorates the extent of MC903-induced AD-like lesions
- mast cell counting (toluidine blue staining of ear tissue sections) (MC903-induced AD model [4]; [8]): significantly reduces the number of mast cells
- serum IgE concentration (ELISA) (MC903-induced AD model [4]; [8]): inhibits the serum IgE concentration
- MC903-induced AD-like lesions (conclusion of Example 3) (MC903-induced AD model [4]; cream, 0.1% and 0.5%): significantly ameliorate the MC903-induced AD-like lesions

SMILES: C=C1C(=O)[C@@]23[C@H](O)C[C@@H]4C(C)(C)c5nc(N)sc5C[C@@]4(C)[C@@H]2CC[C@@H]1[C@H]3O [Compound 2]
- skin lesion score on day 24 (OXA-induced AD model [3]; [7]): do not exert a significant anti-atopic dermatitis effect

SMILES: C=C1C(=O)[C@@]23[C@H](O)C[C@@H]4C(C)(C)c5nc(NC)sc5C[C@@]4(C)[C@@H]2CC[C@@H]1[C@H]3O [Compound 3]
- skin lesion score on day 24 (OXA-induced AD model [3]; [7]): do not exert a significant anti-atopic dermatitis effect

SMILES: C=C1C(=O)[C@@]23[C@H](O)C[C@@H]4C(C)(C)c5nc(NCC)sc5C[C@@]4(C)[C@@H]2CC[C@@H]1[C@H]3O [Compound 4]
- skin lesion score on day 24 (OXA-induced AD model [3]; [7]): do not exert a significant anti-atopic dermatitis effect

SMILES: C=C1C(=O)[C@@]23[C@H](O)C[C@@H]4C(C)(C)c5nc(N(CC)CC)sc5C[C@@]4(C)[C@@H]2CC[C@@H]1[C@H]3O [Compound 5]
- skin lesion score on day 24 (OXA-induced AD model [3]; [7]): effectively reduce the skin lesion score
- OXA-induced AD-like lesions (conclusion of Example 1) (OXA-induced AD model [3]): significantly ameliorate the OXA-induced AD-like lesions

SMILES: C=C1C(=O)[C@@]23[C@H](O)C[C@@H]4C(C)(C)c5nc(N(CCC)CCC)sc5C[C@@]4(C)[C@@H]2CC[C@@H]1[C@H]3O [Compound 6]
- skin lesion score on day 24 (OXA-induced AD model [3]; [7]): effectively reduce the skin lesion score
- OXA-induced AD-like lesions (conclusion of Example 1) (OXA-induced AD model [3]): significantly ameliorate the OXA-induced AD-like lesions

SMILES: C=C1C(=O)[C@@]23[C@H](O)C[C@@H]4C(C)(C)c5nc(N(C(C)C)C(C)C)sc5C[C@@]4(C)[C@@H]2CC[C@@H]1[C@H]3O [Compound 7]
- skin lesion score on day 24 (OXA-induced AD model [3]; [7]): effectively reduce the skin lesion score
- OXA-induced AD-like lesions (conclusion of Example 1) (OXA-induced AD model [3]): significantly ameliorate the OXA-induced AD-like lesions

SMILES: C=C1C(=O)[C@@]23[C@H](O)C[C@@H]4C(C)(C)c5nc(Nc6ccncc6)sc5C[C@@]4(C)[C@@H]2CC[C@@H]1[C@H]3O [Compound 8]
- right ear thickness on day 24 (OXA-induced AD model [3]; [7]): Vehicle group>Compound 8 group
- skin lesion score on day 24 (OXA-induced AD model [3]; [7]): do not exert a significant anti-atopic dermatitis effect

Source: patent US20250275949A1, “USE OF DITERPENE COMPOUND DERIVATIVE OR SALT THEREOF IN PREPARATION OF MEDICINE FOR PREVENTING AND TREATING ATOPIC DERMATITIS” (SUZHOU PHARMAVAN CO., LTD, priority 2022, published 2025)
